In BindingDB's records for doi:10.1021/acs.jmedchem.0c00909 (F. Hoffmann-La Roche, 2020) one finds IC50 data, which are given here for three compounds.

pIC50: −log10 of the molar value. A value given as a limit tells only on which side of the number the result lay.

What is called pIC50 is the IC50 on a negative log10 scale, so that one unit is a factor of ten.

This experiment addresses Neurogenic locus notch homolog protein 1 (Homo sapiens, UniProt P46531). Nature of the experiment: Inhibition of human Notch1 expressed in HEK293 cells coexpressing luciferase reporter measured after 20 hrs by steady-glo chemiluminescence assay. Background: Reporter assays use an easily measured gene product as a stand-in for the process of interest.

Sequence of Neurogenic locus notch homolog protein 1 (P46531 whole entry): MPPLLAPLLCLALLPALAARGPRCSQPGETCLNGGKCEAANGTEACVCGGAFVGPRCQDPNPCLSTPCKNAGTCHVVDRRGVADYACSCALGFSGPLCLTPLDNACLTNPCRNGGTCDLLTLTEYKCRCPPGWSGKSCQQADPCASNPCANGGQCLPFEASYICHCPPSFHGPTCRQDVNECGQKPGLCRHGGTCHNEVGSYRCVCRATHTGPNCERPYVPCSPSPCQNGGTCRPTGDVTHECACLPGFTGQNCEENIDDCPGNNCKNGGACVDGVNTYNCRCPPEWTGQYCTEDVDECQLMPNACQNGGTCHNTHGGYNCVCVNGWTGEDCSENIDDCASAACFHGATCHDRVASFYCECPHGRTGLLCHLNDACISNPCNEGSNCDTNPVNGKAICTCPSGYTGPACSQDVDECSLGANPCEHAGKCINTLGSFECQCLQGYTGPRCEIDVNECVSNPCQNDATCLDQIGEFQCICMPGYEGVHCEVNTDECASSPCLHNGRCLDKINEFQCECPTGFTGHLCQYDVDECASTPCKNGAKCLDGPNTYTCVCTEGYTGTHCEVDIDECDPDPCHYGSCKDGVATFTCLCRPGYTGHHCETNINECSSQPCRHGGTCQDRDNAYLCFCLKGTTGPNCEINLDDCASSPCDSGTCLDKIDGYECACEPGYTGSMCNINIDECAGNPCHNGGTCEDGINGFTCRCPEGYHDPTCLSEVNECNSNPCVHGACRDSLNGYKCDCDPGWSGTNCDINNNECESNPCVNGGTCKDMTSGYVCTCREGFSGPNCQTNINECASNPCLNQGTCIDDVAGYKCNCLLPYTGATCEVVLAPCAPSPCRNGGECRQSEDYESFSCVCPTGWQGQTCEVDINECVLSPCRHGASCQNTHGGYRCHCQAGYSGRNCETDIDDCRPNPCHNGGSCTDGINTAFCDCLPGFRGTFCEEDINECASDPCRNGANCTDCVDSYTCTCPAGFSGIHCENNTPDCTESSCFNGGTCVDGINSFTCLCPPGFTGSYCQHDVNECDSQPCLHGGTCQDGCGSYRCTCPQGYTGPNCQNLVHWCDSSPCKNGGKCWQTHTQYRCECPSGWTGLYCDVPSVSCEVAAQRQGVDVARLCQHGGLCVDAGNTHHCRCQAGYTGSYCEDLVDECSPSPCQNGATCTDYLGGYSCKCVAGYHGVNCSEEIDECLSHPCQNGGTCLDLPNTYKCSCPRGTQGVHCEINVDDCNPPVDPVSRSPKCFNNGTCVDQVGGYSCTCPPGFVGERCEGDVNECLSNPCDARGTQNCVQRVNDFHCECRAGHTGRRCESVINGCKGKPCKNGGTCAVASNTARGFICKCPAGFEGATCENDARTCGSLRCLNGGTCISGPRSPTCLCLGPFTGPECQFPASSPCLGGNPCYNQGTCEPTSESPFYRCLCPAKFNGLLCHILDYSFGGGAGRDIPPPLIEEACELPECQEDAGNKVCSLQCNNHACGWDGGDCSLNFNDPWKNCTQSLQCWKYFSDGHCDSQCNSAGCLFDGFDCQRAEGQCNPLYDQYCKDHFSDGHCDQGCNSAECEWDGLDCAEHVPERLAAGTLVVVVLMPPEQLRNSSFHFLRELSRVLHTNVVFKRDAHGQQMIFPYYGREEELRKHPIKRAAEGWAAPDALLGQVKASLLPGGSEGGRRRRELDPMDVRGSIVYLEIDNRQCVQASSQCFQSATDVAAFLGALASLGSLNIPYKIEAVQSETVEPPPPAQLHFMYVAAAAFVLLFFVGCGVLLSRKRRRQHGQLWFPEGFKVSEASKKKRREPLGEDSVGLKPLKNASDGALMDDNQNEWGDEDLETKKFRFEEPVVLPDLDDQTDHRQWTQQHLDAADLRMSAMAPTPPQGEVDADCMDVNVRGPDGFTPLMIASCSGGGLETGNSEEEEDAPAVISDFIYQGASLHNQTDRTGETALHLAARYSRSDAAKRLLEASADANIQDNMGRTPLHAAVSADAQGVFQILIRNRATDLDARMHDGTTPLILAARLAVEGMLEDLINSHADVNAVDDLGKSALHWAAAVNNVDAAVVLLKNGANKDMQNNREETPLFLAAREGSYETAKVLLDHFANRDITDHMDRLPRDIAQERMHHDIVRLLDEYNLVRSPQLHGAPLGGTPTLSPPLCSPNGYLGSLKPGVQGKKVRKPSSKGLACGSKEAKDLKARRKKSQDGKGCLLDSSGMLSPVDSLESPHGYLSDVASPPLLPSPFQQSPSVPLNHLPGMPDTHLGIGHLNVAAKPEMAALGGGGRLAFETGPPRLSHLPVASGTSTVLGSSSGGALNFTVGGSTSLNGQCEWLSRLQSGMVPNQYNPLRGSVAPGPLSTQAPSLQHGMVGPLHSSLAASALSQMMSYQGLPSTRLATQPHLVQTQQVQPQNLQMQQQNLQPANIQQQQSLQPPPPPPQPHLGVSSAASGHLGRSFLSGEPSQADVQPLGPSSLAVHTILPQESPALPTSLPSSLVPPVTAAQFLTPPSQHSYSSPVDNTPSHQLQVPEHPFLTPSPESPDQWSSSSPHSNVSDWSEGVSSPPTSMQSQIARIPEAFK

Consider `Cc1noc(N2C[C@H]3CC[C@@H](C2)[C@@H]3Nc2nc3c(OCC(F)(F)F)ccc(C(F)(F)F)n3n2)n1`, for which the pIC50 was less than 5.00.
Next, `Cc1cc(N2C[C@H]3CC[C@@H](C2)[C@@H]3Nc2nc3c(OCC(F)F)ccc(C(F)(F)F)n3n2)ncn1`: less than 5.00.
For `Cc1nnc(N2C[C@H]3CC[C@@H](C2)[C@@H]3Nc2nc3c(O[C@@H](C)C(F)(F)F)ccc(C(F)(F)F)n3n2)o1` the value was less than 5.00.
